Values after ≈ are worked out from the molar mass of the structure shown.
Assays:
Type in all cases: cell-based, methicillin-resistant Staphylococcus aureus
[1] = test system: wild-type strain (MRSA2007-13 strain); experiment: drug sensitivity test (disk method), wild-type strain; conditions: MRSA2007-13 WT, 37° C., 24 hours; for drug sensitivity rating (disk method), WT: Mueller-Hinton II agar; for diameter of inhibitory zone, WT: number in brackets; on drug sensitivity rating (disk method), WT: key: resistance (R); sensitivity(S)
Procedure: (§1) The drug sensitivities of a wild-type strain (MRSA2007-13 strain) and a mutant (SAm1-201) to β-lactam antibacterial drugs were measured in a drug sensitivity test (disk method). The test method will be explained. The wild-type strain (MRSA2007-13 strain) or the mutant (SAm1-201) was streaked on LB-Agar, and cultured at 37° C. overnight. The following day, single colonies were collected, added to 5 mL of Trypticase soy broth, and subjected to shaking culture at 37° C. overnight. After culturing, the bacterial solution was adjusted to McFarland turbidity No. 0.5, and evenly smeared on Mueller-Hinton II agar medium with a sterile cotton swab. After disposing sensitivity disks on the agar medium, culture was performed at 37° C. for 24 hours, and the diameter of an inhibitory zone formed around each disk was measured in millimeters.

[2] = test system: MRSA2007-13 SAm1-206 (mgrA mutation and femA mutation); experiment: drug sensitivity test (MIC method), SAm1-206; conditions: dry plate, cultured 20 hours, unit assumed
Procedure: (§2) Next, the drug sensitivities of a wild-type strain (MRSA2007-13 strain) and mutated strains having a mutation in both mgrA and femA (SAm1-201, SAm1-206, SAm1-210) to antibacterial drugs were measured in a drug sensitivity test (MIC method). The test method will be explained. A bacterial solution (a wild-type strain or a mutant) precultured overnight was diluted with sterile physiological saline to reach OD600≈0.26, and 25 μL of the bacterial solution was added to 12 mL of Mueller-Hinton liquid medium (Eiken Chemical Co., Ltd.). To each well of a dry plate (Eiken Chemical Co., Ltd.), […] of the bacterial solution was added, and cultured for 20 hours. After culturing, the MIC was determined based on determination criteria for the dry plate.

[3] = test system: wild-type strain (MRSA2007-13 strain); experiment: drug sensitivity test (MIC method), wild-type strain; conditions: MRSA2007-13 WT; for MIC, WT: dry plate, cultured 20 hours, in µg/mL (unit assumed); on drug sensitivity rating (MIC method), WT: key: resistance (R); sensitivity(S)
Procedure: as §2

[4] = test system: MRSA2007-13 SAm1-210 (mgrA mutation and femA mutation); experiment: drug sensitivity test (MIC method), SAm1-210; conditions: dry plate, cultured 20 hours, unit assumed
Procedure: as §2

[5] = test system: mutant (SAm1-201) of MRSA2007-13; experiment: drug sensitivity test (disk method), mutant SAm1-201; conditions: MRSA2007-13 SAm1-201, 37° C., 24 hours; for drug sensitivity rating (disk method), SAm1-201: Mueller-Hinton II agar; for diameter of inhibitory zone, SAm1-201: number in brackets; on drug sensitivity rating (disk method), SAm1-201: key: resistance (R); sensitivity(S)
Procedure: as §1

[6] = test system: MRSA2007-13 SAm1-201 (mgrA mutation and femA mutation); experiment: drug sensitivity test (MIC method), SAm1-201; conditions: for MIC, SAm1-201: dry plate, cultured 20 hours
Procedure: as §2

[7] = test system: wild-type strain (MRSA2007-13 strain); experiment: growth-inhibitory effect of phage and oxacillin added from the beginning, turbidimetry; conditions: WT MRSA, ϕSA012 ≈1.0×10^7 pfu/mL (MOI≈0.1), oxacillin sodium 16 μg/mL, 37° C.
Procedure: The test method is shown in the following. This test was performed by means of turbidimetry. A bacterial solution (wild-type strain (MRSA2007-13 strain)) precultured overnight was diluted with LB-Broth to reach OD600≈1.0, and further 10-fold diluted (˜ 1.0×10^8 cfu/mL).
The plate was set in a Sunrise Rainbow Thermo RC (Tecan Japan Co., Ltd.), and shaking culture was performed at 37° C. for 90 hours while absorbance values at a wavelength of 590 nm were measured every 15 minutes.

Molecule | drug sensitivity rating (disk method), WT [1] | MIC, SAm1-206 [2] [µg/mL] | MIC, WT [3] | MIC, SAm1-210 [4] [µg/mL] | drug sensitivity rating (disk method), SAm1-201 [5] | diameter of inhibitory zone, SAm1-201 [5] [millimeters] | MIC, SAm1-201 ([6]; unit assumed) [µg/mL] | drug sensitivity rating (MIC method), WT ([3]; symbol in brackets) | drug sensitivity rating (MIC method), SAm1-201 ([6]; symbol in brackets) | MIC, SAm1-201 [6] | diameter of inhibitory zone, WT [1] [millimeters] | bacterial growth inhibition (turbidity) over 90 hours [7]
CC1(C)S[C@@H]2[C@H](NC(=O)[C@H](N)c3ccc(O)cc3)C(=O)N2[C@H]1C(=O)O [AMPC, amoxicillin] | R | 16 (≈ 43.8 µM) | 64 | 2 (≈ 5.47 µM) | S | 34 | 8 (≈ 21.9 µM) | – | – | – | – | –
CO/N=C(\C(=O)N[C@@H]1C(=O)N2C(C(=O)O)=C(/C=C\c3scnc3C)CS[C@H]12)c1csc(N)n1 [CDTR, cefditoren] | – | < 0.5 | >2 | < 0.5 | – | – | < 0.5 | – | – | – | – | –
CC1=C(C(=O)O)N2C(=O)[C@@H](NC(=O)[C@H](N)c3ccccc3)[C@H]2SC1 [CEX, cephalexin] | R | – | – | – | S | 29 | – | – | – | – | – | –
Cc1nnc(SCC2=C(C(=O)O)N3C(=O)[C@@H](NC(=O)Cn4cnnn4)[C@H]3SC2)s1 [CEZ, cefazolin] | – | 1 (≈ 2.2 µM) | >128 | 0.25 (≈ 0.55 µM) | – | – | – | (R) | (S) | – | – | –
CC/C=C(\C(=O)N[C@@H]1C(=O)N2C(C(=O)O)=C(COC(N)=O)CS[C@H]12)c1csc(N)n1 [CFPN, cefcapene] | – | < 0.5 | >2 | < 0.5 | – | – | < 0.5 | – | – | – | – | –
COCC1=C(C(=O)O)N2C(=O)[C@@H](NC(=O)/C(=N\OC)c3csc(N)n3)[C@H]2SC1 [CPDX, cefpodoxime] | R | – | – | – | S | 28 | – | – | – | – | – | –
C[C@H]1c2cccc(O)c2C(=O)C2=C(O)[C@]3(O)C(=O)C(C(N)=O)=C(O)[C@@H](N(C)C)[C@@H]3[C@@H](O)[C@@H]21 [DOXY, doxycycline] | – | 8 (≈ 18 µM) | 8 | 4 (≈ 9 µM) | – | – | 4 (≈ 9 µM) | – | – | – | – | –
CCN1CCN(c2cc3c(cc2F)c(=O)c(C(=O)O)cn3C2CC2)CC1 [ERFX, enrofloxacin] | – | 64 (≈ 178 µM) | 128 | 32 (≈ 89 µM) | – | – | 64 (≈ 178 µM) | – | – | – | – | –
C[C@@H](O)[C@H]1C(=O)N2C(C(=O)O)=C([C@H]3CCCO3)S[C@H]12 [FRPM, faropenem] | R | 0.25 (≈ 0.876 µM) | >128 | 0.125 (≈ 0.438 µM) | S | ≥ 50 | – | – | – | 0.125> | – | –
C[C@@H](O)[C@H]1C(=O)N2C(C(=O)O)=C(SCCN=CN)C[C@H]12 [IPM, imipenem] | R | 1 (≈ 3.34 µM) | 64 | 0.125 (≈ 0.418 µM) | S | 44 | – | – | – | 0.125> | 9 | –
C[C@@H](O)[C@H]1C(=O)N2C(C(=O)O)=C(S[C@@H]3CN[C@H](C(=O)N(C)C)C3)[C@H](C)[C@H]12 [MEPE, meropenem] | R | 4 (≈ 10.4 µM) | 32 | 0.125 (≈ 0.326 µM) | S | 28 | – | – | – | 0.125> | 7 | –
Cc1onc(-c2ccccc2)c1C(=O)N[C@@H]1C(=O)N2[C@@H]1SC(C)(C)[C@@H]2C(=O)O [MPIPC, oxacillin] | R | 4 (≈ 9.96 µM) | – | 0.125 (≈ 0.311 µM) | S | 35 | 0.125 (≈ 0.311 µM) | – | – | – | – | failed in inhibiting bacterial growth
CN(C)[C@@H]1C(O)=C(C(N)=O)C(=O)[C@@]2(O)C(O)=C3C(=O)c4c(O)cccc4[C@@](C)(O)[C@H]3[C@H](O)[C@@H]12 [OTC, oxytetracycline] | – | 128 (≈ 278 µM) | 128 | 128 (≈ 278 µM) | – | – | 64 (≈ 139 µM) | – | – | – | – | –
penicillin [PCG] | – | 2 | >16 | 4 | – | – | 2 | – | – | – | – | –

Source: patent publication US20250281554A1, “COMPOSITION FOR IMPROVING DRUG SENSITIVITY OF ANTIBACTERIAL DRUG TO METHICILLIN-RESISTANT STAPHYLOCOCCUS AUREUS (MRSA), COMPOSITION FOR TREATING OR PREVENTING MRSA INFECTION, AND COMPOSITION FOR REDUCING VIRULENCE OF MRSA” (priority 2021, published 2025)
